# Test system: MLKL phosphorylation in HT29-L23 human colorectal adenocarcinoma cells
# Test: MLKL Phosphorylation High-Content Assay
# Assay type: cell-based
# Conditions: Homo sapiens, necroptosis induced with TNFα, SMAC mimetic and Z-VAD, 6 h, read-out: pMLKL (IC50)
# Protocol: MLKL Phosphorylation High-Content Assay
# HT29-L23 human colorectal adenocarcinoma cells were maintained in RPMI 1640 medium containing 10% heat-inactivated FBS, 1% Penicillin-Streptomycin and 10 mM HEPES. Cells were seeded at 2,000 cells/well in 384 well tissue culture-treated microplates (Greiner #781090-3B) and incubated at 37° C. (5% CO2/95% O2) for 2 d. On the day of the assay, the cells were treated with test compounds at final concentrations of 6.25 to 0.106 μM for 30 min at 37° C. (5% CO2/95% O2). Necroptopsis was induced using a mixture of human TNFα (35 ng/mL) (Peprotech #300-01A), SMAC mimetic (from US 2015/0322111 A1) (700 nM) and Z-VAD (140 nM) (BD pharmingen #51-6936). Following 6 h incubation at 37° C. (5% CO2/95% O2), the cells were fixed with 4% formaldehyde (ACROS 11969-0010) for 15 min at rt, then permeabilized with phosphate buffered saline (PBS) containing 0.2% Triton-X-100 for 10 min. MLKL phosphorylation was detected using anti-MLKL (phospho S358) antibody (Abcam #ab187091) (1:1000 dilution in Blocking Buffer [PBS supplemented with 0.1% BSA]) with ON incubation at 4° C. After washing three times in PBS, goat anti-rabbit Alexa-488 (1:1000 dilution) (Life Technologies, A1 1008) and Hoechst 33342 (Life Technologies, H3570) (1:2000 dilution) in Blocking Buffer were added for 1 h at rt. Following another three cycles of washes in PBS, the microplates were sealed, and cellular images were acquired in the Cellomics ArrayScan VTI high-content imager equipped with an X1 camera. Fluorescent images were taken using a 10× objective and the 386-23 BGRFRN_BGRFRN and 485-20 BGRFRN_BGRFRN filter sets, for nuclei and MLKL phosphorylation, respectively. The image sets were analyzed using the Compartmental Analysis Bioapplication software (Cellomics). The level of MLKL phosphorylation was quantified as MEAN_CircRingAvglntenRatio. The maximal inhibitory response was defined by the activity induced by Necls (CAS #: 852391-15-2, 6.25 μm). The IC50 value was defined as the concentration of compound that produces 50% of the maximal inhibition. The data were fitted using the 4-parameter logistic equation to calculate the IC50 and Ymax values.
row,SMILES,IC50
1,"CNC(=O)c1n[nH]c2cc(-c3cc(C(=O)NC(C)CCc4ccccc4)n(C)n3)ccc12 (racemic) [Example 36, N-methyl-6-(1-methyl-5-((4-phenylbutan-2-yl)carbamoyl)-1H-pyrazol-3-yl)-1H-indazole-3-carboxamide]",600 nM
2,"CC(C)NC(=O)c1n[nH]c2cc(-c3ccc(C(=O)NCC[C@H](O)c4ccc(Cl)cc4)s3)ccc12 [Example 9, (S)-6-(5-((3-(4-chlorophenyl)-3-hydroxypropyl)carbamoyl)thiophen-2-yl)-N-isopropyl-1H-indazole-3-carboxamide]",500 nM

# Source: patent US12275721B2, “Indazole carboxamides as kinase inhibitors” (BRISTOL-MYERS SQUIBB COMPANY, priority 2019, dated 2025)
